Experiments:
[1] = target: T1, HCV polymerase (NS5B570n-Con1) (Hepatitis C virus genotype 1b, UniProt Q9WMX2); experiment: biochemical; design: species or system HCV Con1 strain; settings: IC50 HCV NS5B RNA Polymerase Assay, values without asterisk; 20 nM NS5B570n-Con1 enzyme, 20 nM cIRES RNA template;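 note: recombinant His-tagged enzyme from E. coli, radiolabeled nucleotide incorporation into acid-insoluble RNA read by scintillation after filtration, no-enzyme background subtracted, activity relative to positive control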
T1 construct: contains a 21 amino acid deletion at the C-terminus relative to the full-length HCV polymerase; 6-histidine (N); made in house; host or cells: E. coli strain BL21(DE) pLysS (pET17b)

Row | SMILES | melting point [°C] | IC50 [1] [nM]
1 | CC(C)(C)c1cc(/C=C/c2ccc(NS(C)(=O)=O)cc2)c(O)c(-c2ccc[nH]c2=O)c1 [I-137] | 180 to 182 | 10
2 | COc1c(CCc2ccc(NS(C)(=O)=O)nn2)cc(-c2ccc[nH]c2=O)cc1C(C)(C)C [I-127] | 218 to 220 | 4
3 | Cc1cc(-c2cc(Cl)c[nH]c2=O)cc(C(C)(C)C)c1 [I-8] | 232 to 233 | 1960
4 | CC(=O)Nc1ccc(CCc2cc(-c3ccc[nH]c3=O)cc(C(C)(C)C)c2)cc1 [I-83] | 218 to 220 | 125
5 | COc1c(CCc2cnc(NS(C)(=O)=O)cn2)cc(-c2ccc[nH]c2=O)cc1C(C)(C)C [I-133] | 282 to 283 | 16
6 | COc1ccc(-c2ccc[nH]c2=O)c(F)c1C(C)(C)C [I-56, 3-(3-tert-Butyl-2-fluoro-4-methoxy-phenyl)-1H-pyridin-2-one] | 164.5 to 166 | 136
7 | CC(C)(C)c1cc(/C=C/c2ccc(NS(C)(=O)=O)cc2)cc(-c2ccc[nH]c2=O)c1 [I-141, N-(4-{(E)-2-[3-tert-Butyl-5-(2-oxo-1,2-dihydro-pyridin-3-yl)-phenyl]-vinyl}-phenyl)-methanesulfonamide] | 260 to 262 | 26
8 | COc1c(CCc2ccc(NS(C)(=O)=O)cc2C)cc(-c2ccc[nH]c2=O)cc1C(C)(C)C [I-109, N-(4-{2-[3-tert-Butyl-2-methoxy-5-(2-oxo-1,2-dihydro-pyridin-3-yl)-phenyl]-ethyl}-3-methyl-phenyl)-methanesulfonamide] | 240 to 242 | 7
9 | COc1c(NC(=O)c2ccc(NS(C)(=O)=O)cc2Cl)cc(-c2ccc[nH]c2=O)cc1C(C)(C)C [I-116] | 263 to 265 | 11
10 | COc1c(NC(=O)c2ccc(N)cc2)cc(-c2ccc[nH]c2=O)cc1C(C)(C)C [I-72] | 190 to 193 | 34
11 | COc1c(CCC(=O)O)cc(-c2ccc[nH]c2=O)cc1C(C)(C)C [I-22] | 180.2 to 181.8 | 330
12 | COc1c(C(=O)NC2CC2)cc(-c2ccc[nH]c2=O)cc1C(C)(C)C [I-19] | 223 to 224 | 1620
13 | CC(C)(C)c1cc(CCc2ccc(NS(C)(=O)=O)cc2)cc(-c2cc(F)c[nH]c2=O)c1 [I-94] | 191 to 193 | 10
14 | CC(C)(CO)c1cc(CCc2ccc(NS(C)(=O)=O)cc2)c(O)c(-c2ccc[nH]c2=O)c1 [I-199, N-(4-{2-[2-Hydroxy-5-(2-hydroxy-1,1-dimethyl-ethyl)-3-(2-oxo-1,2-dihydro-pyridin-3-yl)-phenyl]-ethyl}-phenyl)-methanesulfonamide] | 118 to 120 | 13
15 | COc1c(CCc2ccc(NS(C)(=O)=O)c(C)c2)cc(-c2ccc[nH]c2=O)cc1C(C)(C)C [I-110] | 114 to 116 | 16
16 | CC(C)(C)c1cc(-c2ccc[nH]c2=O)ccc1OC(F)F [I-6, 3-(3-tert-Butyl-4-difluoromethoxy-phenyl)-1H-pyridin-2-one] | 174 to 175 | 2570
17 | CC(C)(C)c1cc(Cc2ccccc2)c(O)c(-c2ccc[nH]c2=O)c1 [I-17] | 236 to 237 | 293
18 | CC(C)(C)c1cc(CCc2ccc(NS(C)(=O)=O)cc2)c(C#N)c(-c2ccc[nH]c2=O)c1 [I-87, N-(4-{2-[5-tert-butyl-2-cyano-3-(2-oxo-1,2-dihydro-pyridin-3-yl)-phenyl]-ethyl}-phenyl)-methanesulfonamide] | 128 to 130 | 13
19 | CC(C)(C)c1cc(-c2ccccc2)c(O)c(-c2ccc[nH]c2=O)c1 [I-15] | 235.8 to 237 | 2920

— US8273773B2 (priority 2008, dated 2012)
